From publication PMC6421522, “Designing Dual Inhibitors of Anaplastic Lymphoma Kinase (ALK) and Bromodomain-4 (BRD4) by Tuning Kinase Selectivity” (Journal of Medicinal Chemistry, 2019)

Legend:
Experiment in all cases: KINOMEscan scanEDGE
Type in all cases: binding
Details in all cases: read-out: % Control (1µM)
CSF1R = biological target: T1, CSF1R (Homo sapiens, UniProt P07333)
T1 construct: purchased DiscoveRx KINOMEscan (scanEDGE); Thermo Fisher SelectScreen (Z'-LYTE) for PLK-1
Method: (§1) Compound X was assayed at 1 μM in the DiscoveRx KINOMEscan (scanEDGE) assay platform. The results for single-concentration binding interactions are reported as “%Ctrl” (DMSO = 100%Ctrl), where lower numbers indicate stronger hits.

TGFBR1 = biological target: T2, TGFBR1 (Homo sapiens, UniProt P36897)
T2 construct: purchased DiscoveRx KINOMEscan (scanEDGE); Thermo Fisher SelectScreen (Z'-LYTE) for PLK-1
Method: as §1

ABL1-nonphosphorylated = biological target: T3, ABL1-nonphosphorylated (Homo sapiens, UniProt P00519)
T3 construct: purchased DiscoveRx KINOMEscan (scanEDGE); Thermo Fisher SelectScreen (Z'-LYTE) for PLK-1
Method: as §1

MKNK1 = biological target: T4, MKNK1 (Homo sapiens, UniProt Q9BUB5)
T4 construct: purchased DiscoveRx KINOMEscan (scanEDGE); Thermo Fisher SelectScreen (Z'-LYTE) for PLK-1
Method: as §1

[1] = biological target: T5, JAK3(JH1domain-catalytic) (Homo sapiens, UniProt P52333)
T5 construct: JAK3(JH1domain-catalytic); purchased DiscoveRx KINOMEscan (scanEDGE); Thermo Fisher SelectScreen (Z'-LYTE) for PLK-1
Method: as §1

IKK-alpha = biological target: T6, IKK-alpha (Homo sapiens, UniProt O15111)
T6 construct: purchased DiscoveRx KINOMEscan (scanEDGE); Thermo Fisher SelectScreen (Z'-LYTE) for PLK-1
Method: as §1

EGFR = biological target: T7, EGFR (Homo sapiens, UniProt P00533)
T7 construct: purchased DiscoveRx KINOMEscan (scanEDGE); Thermo Fisher SelectScreen (Z'-LYTE) for PLK-1
Method: as §1

AXL = biological target: T8, AXL (Homo sapiens, UniProt P30530)
T8 construct: purchased DiscoveRx KINOMEscan (scanEDGE); Thermo Fisher SelectScreen (Z'-LYTE) for PLK-1
Method: as §1

[2] = biological target: T9, ABL1(E255K)-phosphorylated (Homo sapiens, UniProt P00519, E255K)
T9 construct: purchased DiscoveRx KINOMEscan (scanEDGE); Thermo Fisher SelectScreen (Z'-LYTE) for PLK-1
Method: as §1

BTK = biological target: T10, BTK (Homo sapiens, UniProt Q06187)
T10 construct: purchased DiscoveRx KINOMEscan (scanEDGE); Thermo Fisher SelectScreen (Z'-LYTE) for PLK-1
Method: as §1

MEK2 = biological target: T11, MEK2 (Homo sapiens, UniProt P36507)
T11 construct: purchased DiscoveRx KINOMEscan (scanEDGE); Thermo Fisher SelectScreen (Z'-LYTE) for PLK-1
Method: as §1

MARK3 = biological target: T12, MARK3 (Homo sapiens, UniProt P27448)
T12 construct: purchased DiscoveRx KINOMEscan (scanEDGE); Thermo Fisher SelectScreen (Z'-LYTE) for PLK-1
Method: as §1

ZAP70 = biological target: T13, ZAP70 (Homo sapiens, UniProt P43403)
T13 construct: purchased DiscoveRx (DiscoverX)
Method: as §1

PIK3C2B = biological target: T14, PIK3C2B (Homo sapiens, UniProt O00750)
T14 construct: purchased DiscoveRx KINOMEscan (scanEDGE); Thermo Fisher SelectScreen (Z'-LYTE) for PLK-1
Method: as §1

GSK3B = biological target: T15, GSK3B (Homo sapiens, UniProt P49841)
T15 construct: purchased DiscoveRx KINOMEscan (scanEDGE); Thermo Fisher SelectScreen (Z'-LYTE) for PLK-1
Method: as §1

CDK2 = biological target: T16, CDK2 (Homo sapiens, UniProt P24941)
T16 construct: purchased DiscoveRx KINOMEscan (scanEDGE); Thermo Fisher SelectScreen (Z'-LYTE) for PLK-1
Method: as §1

FLT3 = biological target: T17, FLT3 (Homo sapiens, UniProt P36888)
T17 construct: purchased DiscoveRx KINOMEscan (scanEDGE); Thermo Fisher SelectScreen (Z'-LYTE) for PLK-1
Method: as §1

EGFR(L858R) = biological target: T18, EGFR(L858R) (Homo sapiens, UniProt P00533, L858R)
T18 construct: purchased DiscoveRx KINOMEscan (scanEDGE); Thermo Fisher SelectScreen (Z'-LYTE) for PLK-1
Method: as §1

[3] = biological target: T19, ABL1(T315I)-phosphorylated (Homo sapiens, UniProt P00519, T315I)
T19 construct: purchased DiscoveRx KINOMEscan (scanEDGE); Thermo Fisher SelectScreen (Z'-LYTE) for PLK-1
Method: as §1

ULK2 = biological target: T20, ULK2 (Homo sapiens, UniProt Q8IYT8)
T20 construct: purchased DiscoveRx (DiscoverX)
Method: as §1

JNK2 = biological target: T21, JNK2 (Homo sapiens, UniProt P45984)
T21 construct: purchased DiscoveRx (DiscoverX)
Method: as §1

RIOK2 = biological target: T22, RIOK2 (Homo sapiens, UniProt Q9BVS4)
T22 construct: purchased DiscoveRx KINOMEscan (scanEDGE); Thermo Fisher SelectScreen (Z'-LYTE) for PLK-1
Method: as §1

MEK1 = biological target: T23, MEK1 (Homo sapiens, UniProt Q02750)
T23 construct: purchased DiscoveRx KINOMEscan (scanEDGE); Thermo Fisher SelectScreen (Z'-LYTE) for PLK-1
Method: as §1

IKK-beta = biological target: T24, IKK-beta (Homo sapiens, UniProt O14920)
T24 construct: purchased DiscoveRx KINOMEscan (scanEDGE); Thermo Fisher SelectScreen (Z'-LYTE) for PLK-1
Method: as §1

FAK = biological target: T25, FAK (Homo sapiens, UniProt Q05397)
T25 construct: purchased DiscoveRx KINOMEscan (scanEDGE); Thermo Fisher SelectScreen (Z'-LYTE) for PLK-1
Method: as §1

PIM2 = biological target: T26, PIM2 (Homo sapiens, UniProt Q9P1W9)
T26 construct: purchased DiscoveRx KINOMEscan (scanEDGE); Thermo Fisher SelectScreen (Z'-LYTE) for PLK-1
Method: as §1

BRAF(V600E) = biological target: T27, BRAF(V600E) (Homo sapiens, UniProt P15056, V600E)
T27 construct: purchased DiscoveRx KINOMEscan (scanEDGE); Thermo Fisher SelectScreen (Z'-LYTE) for PLK-1
Method: as §1

PDGFRB = biological target: T28, PDGFRB (Homo sapiens, UniProt P09619)
T28 construct: purchased DiscoveRx KINOMEscan (scanEDGE); Thermo Fisher SelectScreen (Z'-LYTE) for PLK-1
Method: as §1

ERBB4 = biological target: T29, ERBB4 (Homo sapiens, UniProt Q15303)
T29 construct: purchased DiscoveRx KINOMEscan (scanEDGE); Thermo Fisher SelectScreen (Z'-LYTE) for PLK-1
Method: as §1

[4] = biological target: T30, RSK2(Kin.Dom.1-N-terminal) (Homo sapiens, UniProt P51812)
T30 construct: RSK2(Kin.Dom.1-N-terminal); purchased DiscoveRx KINOMEscan (scanEDGE); Thermo Fisher SelectScreen (Z'-LYTE) for PLK-1
Method: as §1

PRKCE = biological target: T31, PRKCE (Homo sapiens, UniProt Q02156)
T31 construct: purchased DiscoveRx KINOMEscan (scanEDGE); Thermo Fisher SelectScreen (Z'-LYTE) for PLK-1
Method: as §1

TIE2 = biological target: T32, TIE2 (Homo sapiens, UniProt Q02763)
T32 construct: purchased DiscoveRx KINOMEscan (scanEDGE); Thermo Fisher SelectScreen (Z'-LYTE) for PLK-1
Method: as §1

PDGFRA = biological target: T33, PDGFRA (Homo sapiens, UniProt P16234)
T33 construct: purchased DiscoveRx KINOMEscan (scanEDGE); Thermo Fisher SelectScreen (Z'-LYTE) for PLK-1
Method: as §1

MAP3K4 = biological target: T34, MAP3K4 (Homo sapiens, UniProt Q9Y6R4)
T34 construct: purchased DiscoveRx KINOMEscan (scanEDGE); Thermo Fisher SelectScreen (Z'-LYTE) for PLK-1
Method: as §1

BRAF = biological target: T35, BRAF (Homo sapiens, UniProt P15056)
T35 construct: purchased DiscoveRx KINOMEscan (scanEDGE); Thermo Fisher SelectScreen (Z'-LYTE) for PLK-1
Method: as §1

CDK9 = biological target: T36, CDK9 (Homo sapiens, UniProt P50750)
T36 construct: purchased DiscoveRx KINOMEscan (scanEDGE); Thermo Fisher SelectScreen (Z'-LYTE) for PLK-1
Method: as §1

MKNK2 = biological target: T37, MKNK2 (Homo sapiens, UniProt Q9HBH9)
T37 construct: purchased DiscoveRx KINOMEscan (scanEDGE); Thermo Fisher SelectScreen (Z'-LYTE) for PLK-1
Method: as §1

PAK4 = biological target: T38, PAK4 (Homo sapiens, UniProt O96013)
T38 construct: purchased DiscoveRx KINOMEscan (scanEDGE); Thermo Fisher SelectScreen (Z'-LYTE) for PLK-1
Method: as §1

ERBB2 = biological target: T39, ERBB2 (Homo sapiens, UniProt P04626)
T39 construct: purchased DiscoveRx KINOMEscan (scanEDGE); Thermo Fisher SelectScreen (Z'-LYTE) for PLK-1
Method: as §1

SRC = biological target: T40, SRC (Homo sapiens, UniProt P12931)
T40 construct: purchased DiscoveRx KINOMEscan (scanEDGE); Thermo Fisher SelectScreen (Z'-LYTE) for PLK-1
Method: as §1

RET = biological target: T41, RET (Homo sapiens, UniProt P07949)
T41 construct: purchased DiscoveRx KINOMEscan (scanEDGE); Thermo Fisher SelectScreen (Z'-LYTE) for PLK-1
Method: as §1

T25 sequence (Q05397 whole entry): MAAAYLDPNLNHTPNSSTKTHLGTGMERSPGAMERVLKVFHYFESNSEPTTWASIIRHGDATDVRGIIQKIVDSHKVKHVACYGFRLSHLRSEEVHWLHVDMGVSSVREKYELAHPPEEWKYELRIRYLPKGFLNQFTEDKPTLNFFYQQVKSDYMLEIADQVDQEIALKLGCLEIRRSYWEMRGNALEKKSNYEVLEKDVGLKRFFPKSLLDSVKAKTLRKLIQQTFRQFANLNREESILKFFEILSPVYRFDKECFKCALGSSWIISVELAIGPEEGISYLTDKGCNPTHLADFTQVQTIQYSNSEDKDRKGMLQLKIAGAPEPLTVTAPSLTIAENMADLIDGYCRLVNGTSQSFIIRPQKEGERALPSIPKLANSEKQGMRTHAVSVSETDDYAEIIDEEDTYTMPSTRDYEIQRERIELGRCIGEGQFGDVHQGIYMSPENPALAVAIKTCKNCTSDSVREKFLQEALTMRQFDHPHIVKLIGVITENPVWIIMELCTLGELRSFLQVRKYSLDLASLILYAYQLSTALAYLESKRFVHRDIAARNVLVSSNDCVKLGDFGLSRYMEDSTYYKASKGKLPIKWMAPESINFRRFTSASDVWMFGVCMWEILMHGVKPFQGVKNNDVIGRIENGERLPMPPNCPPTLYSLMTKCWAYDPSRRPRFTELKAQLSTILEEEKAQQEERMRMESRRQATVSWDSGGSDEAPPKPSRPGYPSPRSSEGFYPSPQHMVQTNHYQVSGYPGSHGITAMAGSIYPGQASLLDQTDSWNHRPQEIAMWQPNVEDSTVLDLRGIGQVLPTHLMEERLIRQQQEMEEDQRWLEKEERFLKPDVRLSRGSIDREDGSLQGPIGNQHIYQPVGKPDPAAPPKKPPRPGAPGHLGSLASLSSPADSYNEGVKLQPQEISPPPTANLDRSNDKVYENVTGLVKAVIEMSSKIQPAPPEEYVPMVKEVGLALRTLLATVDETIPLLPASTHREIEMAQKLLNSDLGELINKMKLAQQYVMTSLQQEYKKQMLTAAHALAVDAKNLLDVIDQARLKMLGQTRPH
T4 sequence (Q9BUB5 whole entry): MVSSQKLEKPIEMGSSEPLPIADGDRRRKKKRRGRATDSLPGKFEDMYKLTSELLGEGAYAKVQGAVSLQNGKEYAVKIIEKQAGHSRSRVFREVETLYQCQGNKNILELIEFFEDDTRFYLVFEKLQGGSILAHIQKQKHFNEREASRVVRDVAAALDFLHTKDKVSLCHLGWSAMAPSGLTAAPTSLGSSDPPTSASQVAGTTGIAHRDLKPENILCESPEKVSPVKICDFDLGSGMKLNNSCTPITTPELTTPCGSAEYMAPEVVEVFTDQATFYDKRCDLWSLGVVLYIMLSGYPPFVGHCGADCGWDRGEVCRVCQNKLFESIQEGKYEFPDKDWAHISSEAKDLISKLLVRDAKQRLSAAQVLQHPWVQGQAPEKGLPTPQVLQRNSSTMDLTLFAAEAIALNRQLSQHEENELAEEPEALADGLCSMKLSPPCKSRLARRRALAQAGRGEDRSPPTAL
T34 sequence (Q9Y6R4 whole entry): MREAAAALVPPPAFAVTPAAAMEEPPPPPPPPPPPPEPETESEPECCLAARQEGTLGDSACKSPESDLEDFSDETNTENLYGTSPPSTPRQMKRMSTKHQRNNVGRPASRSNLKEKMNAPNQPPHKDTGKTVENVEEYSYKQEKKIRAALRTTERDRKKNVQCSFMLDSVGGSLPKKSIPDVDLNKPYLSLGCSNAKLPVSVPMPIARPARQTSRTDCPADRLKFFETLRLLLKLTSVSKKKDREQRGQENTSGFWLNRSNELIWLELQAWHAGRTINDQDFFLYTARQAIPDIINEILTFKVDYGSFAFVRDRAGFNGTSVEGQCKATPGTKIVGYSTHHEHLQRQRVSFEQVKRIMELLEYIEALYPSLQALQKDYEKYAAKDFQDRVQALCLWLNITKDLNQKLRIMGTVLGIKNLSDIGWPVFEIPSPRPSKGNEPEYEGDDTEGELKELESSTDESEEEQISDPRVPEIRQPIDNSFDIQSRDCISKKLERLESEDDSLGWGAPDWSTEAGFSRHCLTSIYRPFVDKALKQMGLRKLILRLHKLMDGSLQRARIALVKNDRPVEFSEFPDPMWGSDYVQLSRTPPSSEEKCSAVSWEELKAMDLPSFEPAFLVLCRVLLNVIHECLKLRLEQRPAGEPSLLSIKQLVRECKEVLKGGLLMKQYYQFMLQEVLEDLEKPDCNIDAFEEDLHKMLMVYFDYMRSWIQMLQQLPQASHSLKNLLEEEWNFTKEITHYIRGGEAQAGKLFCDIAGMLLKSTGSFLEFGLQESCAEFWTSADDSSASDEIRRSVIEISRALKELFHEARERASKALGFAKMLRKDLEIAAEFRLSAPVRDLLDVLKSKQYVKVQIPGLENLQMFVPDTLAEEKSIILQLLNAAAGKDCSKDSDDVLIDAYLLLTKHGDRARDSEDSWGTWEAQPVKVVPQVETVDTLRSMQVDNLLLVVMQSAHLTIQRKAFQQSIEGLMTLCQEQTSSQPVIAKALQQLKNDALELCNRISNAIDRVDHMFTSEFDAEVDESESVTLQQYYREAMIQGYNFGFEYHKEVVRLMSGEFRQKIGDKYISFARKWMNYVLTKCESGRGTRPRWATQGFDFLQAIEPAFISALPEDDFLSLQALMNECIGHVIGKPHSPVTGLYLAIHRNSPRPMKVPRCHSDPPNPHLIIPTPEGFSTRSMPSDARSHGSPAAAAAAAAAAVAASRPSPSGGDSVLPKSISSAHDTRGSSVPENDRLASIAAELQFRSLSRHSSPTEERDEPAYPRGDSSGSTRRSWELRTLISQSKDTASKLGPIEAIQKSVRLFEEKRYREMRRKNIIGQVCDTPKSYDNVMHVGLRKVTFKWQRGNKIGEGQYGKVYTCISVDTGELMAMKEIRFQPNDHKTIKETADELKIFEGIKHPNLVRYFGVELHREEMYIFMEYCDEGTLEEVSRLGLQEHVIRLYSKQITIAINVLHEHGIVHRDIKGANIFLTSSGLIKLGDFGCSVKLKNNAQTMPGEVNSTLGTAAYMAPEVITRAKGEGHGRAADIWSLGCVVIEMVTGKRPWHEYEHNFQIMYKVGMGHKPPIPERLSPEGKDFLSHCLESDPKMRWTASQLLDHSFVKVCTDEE
T29 sequence (Q15303 26-1308): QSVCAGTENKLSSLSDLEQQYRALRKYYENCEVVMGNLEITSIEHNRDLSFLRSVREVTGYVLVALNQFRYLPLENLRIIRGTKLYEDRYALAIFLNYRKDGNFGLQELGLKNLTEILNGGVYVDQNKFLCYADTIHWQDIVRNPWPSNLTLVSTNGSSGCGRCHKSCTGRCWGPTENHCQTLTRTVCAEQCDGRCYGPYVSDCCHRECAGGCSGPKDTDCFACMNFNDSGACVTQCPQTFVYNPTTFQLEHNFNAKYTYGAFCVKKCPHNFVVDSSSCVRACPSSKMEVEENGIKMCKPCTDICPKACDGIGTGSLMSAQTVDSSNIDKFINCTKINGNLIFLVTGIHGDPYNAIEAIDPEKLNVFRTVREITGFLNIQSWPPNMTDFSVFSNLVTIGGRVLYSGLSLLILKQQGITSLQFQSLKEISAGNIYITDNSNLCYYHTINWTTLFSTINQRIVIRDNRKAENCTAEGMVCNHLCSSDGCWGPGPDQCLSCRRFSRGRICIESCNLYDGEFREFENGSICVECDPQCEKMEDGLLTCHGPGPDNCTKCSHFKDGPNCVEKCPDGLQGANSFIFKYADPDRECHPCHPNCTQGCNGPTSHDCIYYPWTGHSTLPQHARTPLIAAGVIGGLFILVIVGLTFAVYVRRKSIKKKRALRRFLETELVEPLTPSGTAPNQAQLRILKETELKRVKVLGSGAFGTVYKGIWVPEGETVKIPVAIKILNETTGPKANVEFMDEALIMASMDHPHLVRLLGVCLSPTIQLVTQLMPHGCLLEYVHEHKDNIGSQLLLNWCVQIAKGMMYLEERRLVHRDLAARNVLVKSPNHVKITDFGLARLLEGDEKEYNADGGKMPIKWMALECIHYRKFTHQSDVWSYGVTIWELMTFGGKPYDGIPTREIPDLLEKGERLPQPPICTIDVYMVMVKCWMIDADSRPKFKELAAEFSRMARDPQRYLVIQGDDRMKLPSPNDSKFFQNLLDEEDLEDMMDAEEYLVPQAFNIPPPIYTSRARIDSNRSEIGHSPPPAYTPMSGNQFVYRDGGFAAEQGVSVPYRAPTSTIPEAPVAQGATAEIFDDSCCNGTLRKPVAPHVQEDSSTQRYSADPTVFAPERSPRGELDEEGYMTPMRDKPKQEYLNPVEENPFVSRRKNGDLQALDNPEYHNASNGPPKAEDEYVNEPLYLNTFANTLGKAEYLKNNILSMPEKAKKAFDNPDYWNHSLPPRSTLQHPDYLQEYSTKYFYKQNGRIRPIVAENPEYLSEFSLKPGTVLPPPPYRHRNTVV
T11 sequence (P36507 whole entry): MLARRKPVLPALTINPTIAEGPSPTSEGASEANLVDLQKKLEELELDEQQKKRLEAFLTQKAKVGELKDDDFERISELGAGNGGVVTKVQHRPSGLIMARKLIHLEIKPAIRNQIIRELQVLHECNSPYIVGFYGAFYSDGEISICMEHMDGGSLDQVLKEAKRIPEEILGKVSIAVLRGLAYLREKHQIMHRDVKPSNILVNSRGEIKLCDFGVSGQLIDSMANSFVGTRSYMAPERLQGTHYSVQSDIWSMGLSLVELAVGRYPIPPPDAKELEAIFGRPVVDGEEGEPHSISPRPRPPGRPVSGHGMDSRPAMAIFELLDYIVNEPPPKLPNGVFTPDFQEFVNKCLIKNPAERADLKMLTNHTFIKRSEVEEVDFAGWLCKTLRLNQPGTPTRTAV
T30 sequence (P51812 68-327 limits assumed): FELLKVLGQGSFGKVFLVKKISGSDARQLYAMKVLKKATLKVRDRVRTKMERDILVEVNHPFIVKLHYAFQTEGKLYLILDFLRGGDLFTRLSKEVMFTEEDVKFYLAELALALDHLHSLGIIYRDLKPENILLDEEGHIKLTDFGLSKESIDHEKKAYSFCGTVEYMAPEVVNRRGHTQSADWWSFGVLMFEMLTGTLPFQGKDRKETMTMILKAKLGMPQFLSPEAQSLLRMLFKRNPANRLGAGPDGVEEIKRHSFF

CCOc1cc(C2CCN(C)CC2)ccc1Nc1ncc2c(n1)N(Cc1cc(C)cs1)[C@H](CC)C(=O)N2C [16k, (R)-2-((2-Ethoxy-4-(1-methylpiperidin-4-yl)phenyl)amino)-7-ethyl-5-methyl-8-((4-methylthiophen-2-yl)methyl)-7,8-dihydropteridin-6(5H)-one]
remaining binding at 1 µM (CSF1R): 100%
remaining binding at 1 µM (TGFBR1): 94%
remaining binding at 1 µM (ABL1-nonphosphorylated): 84%
remaining binding at 1 µM (MKNK1): 100%
remaining binding at 1 µM [1]: 100%
remaining binding at 1 µM (IKK-alpha): 97%
remaining binding at 1 µM (EGFR): 86%
remaining binding at 1 µM (AXL): 98%
remaining binding at 1 µM [2]: 100%
remaining binding at 1 µM (BTK): 100%
remaining binding at 1 µM (MEK2): 100%
remaining binding at 1 µM (MARK3): 100%
remaining binding at 1 µM (ZAP70): 94%
remaining binding at 1 µM (PIK3C2B): 88%
remaining binding at 1 µM (GSK3B): 82%
remaining binding at 1 µM (CDK2): 100%
remaining binding at 1 µM (FLT3): 100%
remaining binding at 1 µM (EGFR(L858R)): 69%
remaining binding at 1 µM [3]: 71%
remaining binding at 1 µM (ULK2): 64%
remaining binding at 1 µM (JNK2): 44%
remaining binding at 1 µM (RIOK2): 74%
remaining binding at 1 µM (MEK1): 100%
remaining binding at 1 µM (IKK-beta): 100%
remaining binding at 1 µM (FAK): 60%
remaining binding at 1 µM (PIM2): 86%
remaining binding at 1 µM (BRAF(V600E)): 98%
remaining binding at 1 µM (PDGFRB): 100%
remaining binding at 1 µM (ERBB4): 93%
remaining binding at 1 µM [4]: 59%
remaining binding at 1 µM (PRKCE): 100%
remaining binding at 1 µM (TIE2): 99%
remaining binding at 1 µM (PDGFRA): 96%
remaining binding at 1 µM (MAP3K4): 92%
remaining binding at 1 µM (BRAF): 100%
remaining binding at 1 µM (CDK9): 100%
remaining binding at 1 µM (MKNK2): 60%
remaining binding at 1 µM (PAK4): 100%
remaining binding at 1 µM (ERBB2): 100%
remaining binding at 1 µM (SRC): 100%
remaining binding at 1 µM (RET): 99%
